Here are results for 16 molecules from patent US12145930B1, “4-thiazolidinone derivatives as EGFR inhibitors for anti-tumor activity” (KING FAISAL UNIVERSITY, priority 2024, dated 2024).

Broadly, the IC50 is the midpoint of a concentration-inhibition curve.

“Also recorded” adds a separate entry of the source. Bounds are passed on as bounds.

For assay [1], the system named is MCF7 (breast) carcinoma cell line. The experiment in a line: antiproliferative growth assay, MCF7. Format: cell-based, human.
The test system of assay [2] is PC3 (prostate) carcinoma cell line. As to the kind of experiment: antiproliferative growth assay, PC3. Format: cell-based, human. The conditions noted are these: PC3 prostate carcinoma cells. From the text: It is noteworthy that most of these compounds belong to the thiazolidine library.
Assay [3] relates to HCT-116 (colon) carcinoma cell line. The experiment in a line: antiproliferative growth assay, HCT-116. It counts as cell-based, human. The settings on record: for IC50: HCT116 colon carcinoma cells; for potency against colon cancer relative to the standard reference (5-fluorouracil): HCT-116, compared with 5-fluorouracil.
The target in assay [4] is EGFR (Homo sapiens, UniProt P00533). The experiment in a line: EGFR inhibition assay (Alpha Screen system). It counts as biochemical. The conditions noted are these: Gefitinib as standard.
Assay [5] relates to MCF7 cells. As to the kind of experiment: apoptosis assay, Annexin V/PI. The settings on record: 24 h. Format: cell-based, human. The source says: It has been detected that the early and late apoptosis produced by the examined compound 10 certainly indicated its capability to induce significant levels of apoptosis with necrosis percent 3.14.
Assay [6] relates to MCF7 cells. The experiment in a line: cell cycle analysis by flow cytometry. It counts as cell-based, human. The conditions noted are these: 24 hours. The source says: Typical neoplastic cells evade apoptosis since accumulation of mutations block apoptosis pathways. It was confirmed that the induction of apoptosis upon effective cancer treatment. It is an important regulatory mechanism in cell growth, maturation and death and is associated with a variety of human diseases, including tumors. Chemotherapy agents may lead to an autophagic response, which is one possible method of inducing apoptosis. There is a unique association between autophagy and apoptosis. While chemotherapeutic drugs induce autophagy, cell cycle arrest and cell senescence, it is imperative the induction of apoptosis and permanent removal of neoplastic cells for effective cancer treatment. Studies on the effect of compound 10 on cell cycle development and induction of apoptosis in cancer MCF7 cells was carried out. […] The cells were analyzed by flow cytometry technique.
(In general: Flow cytometry measures light scatter and fluorescence of single cells or particles in a stream.)

The mark [7] stands for this setting: Homo sapiens, MCF7, MCF7 breast carcinoma cells.

Regarding `O=C(O)c1ccc(/N=C2\S/C(=C/c3ccccc3)C(=O)N2C(=O)c2ccccc2)cc1` [Compound 6a, 4-((3-benzoyl-5-(benzylidene)-4-oxothiazolidin-2-ylidene)amino)benzoic acid], the IC50 in assay [1] (setting [7]) is over 100 µM; in assay [2] (Homo sapiens), over 100 µM; in assay [3] (Homo sapiens, HCT-116) it was over 100 µM.
Consider `O=C(O)c1ccc(/N=C2\SCC(=O)N2C(=O)c2ccccc2)cc1` [Compound 4, 4-((3-benzoyl-4-oxothiazolidin-2-ylidene)amino)benzoic acid], for which the IC50 is over 100 µM in assay [1] (setting [7]); over 100 µM in assay [2] (Homo sapiens); over 100 µM in assay [3] (Homo sapiens, HCT-116).
On to `O=C(O)c1ccc(/N=C2\S/C(=C/c3cc(/N=N/c4ccccc4)ccc3O)C(=O)N2C(=O)c2ccccc2)cc1` [Compound 9a, 4-((3-benzoyl-5-(2-hydroxy-5-((E)-phenyldiazenyl)benzylidene)-4-oxothiazolidin-2-ylidene)amino) benzoic acid], for which the concentration for half-maximal inhibition (IC50) in assay [1] (setting [7]) is over 100 µM; in assay [2] (Homo sapiens), over 100 µM; in assay [3] (Homo sapiens, HCT-116), over 100 µM.
With `O=C(O)c1ccc(/N=C2\S/C(=C/c3ccc4ccccc4c3)C(=O)N2C(=O)c2ccccc2)cc1` [Compound 6g, 4-((3-benzoyl-5-(naphthalen-2-ylmethylene)-4-oxothiazolidin-2-ylidene)amino) benzoic acid], the half-maximal inhibitory concentration (IC50) in assay [1] (setting [7]) is over 100 µM; in assay [2] (Homo sapiens) it was over 100 µM; in assay [3] (Homo sapiens, HCT-116) it was over 100 µM.
Turning to `O=C(O)c1ccc(/N=C2\S/C(=C/c3ccc(O)cc3O)C(=O)N2C(=O)c2ccccc2)cc1` [Compound 6c, 4-((3-benzoyl-5-(2,4-dihydroxybenzylidene)-4-oxothiazolidin-2-ylidene)amino) benzoic acid], the half-maximal inhibitory concentration (IC50) in assay [1] (setting [7]) is over 100 µM; in assay [2] (Homo sapiens), over 100 µM; in assay [3] (Homo sapiens, HCT-116) it was over 100 µM.
On to `COc1ccc(/C=C2/S/C(=N\c3ccc(C(=O)O)cc3)N(C(=O)c3ccccc3)C2=O)cc1` [Compound 6d, 4((3-benzoyl-5-(4-methoxybenzylidene)-4-oxothiazolidin-2-ylidene)amino) benzoic acid], for which the half-inhibitory concentration (IC50) in assay [1] (MCF7 breast carcinoma cells) is 34.4 µM; in assay [2] (Homo sapiens) it was over 100 µM; in assay [3] (Homo sapiens, HCT-116) it was 12.4 µM; in assay [4], 0.134 ± 0.0029 µM. For the same molecule, in assay [3], the “potency against colon cancer relative to the standard reference (5-fluorouracil)” value is on record as “higher potency against colon cancer relative to the standard reference”.
Turning to `COc1ccc(/N=N/c2ccc(O)c(/C=C3/S/C(=N\c4ccc(C(=O)O)cc4)N(C(=O)c4ccccc4)C3=O)c2)cc1` [Compound 9b, 4-((3-benzoyl-5-(2-hydroxy-5-((4-methoxyphenyl)diazenyl)benzylidene)-4-oxothiazolidin-2-ylidene)amino)benzoic acid], the IC50 is over 100 µM in assay [1] (setting [7]); over 100 µM in assay [2] (Homo sapiens); over 100 µM in assay [3] (Homo sapiens, HCT-116).
On to `O=C(O)c1ccc(/N=C2\S/C(=C/c3ccc(O)cc3)C(=O)N2C(=O)c2ccccc2)cc1` [Compound 6b, 4-((3-benzoyl-5-(4-hydroxybenzylidene)-4-oxothiazolidin-2-ylidene)amino)benzoic acid], for which the IC50 in assay [1] (setting [7]) is over 100 µM; in assay [2] (Homo sapiens) it was over 100 µM; in assay [3] (Homo sapiens, HCT-116), over 100 µM.
With `CN(C)/C=C1\S/C(=N\c2ccc(C(=O)O)cc2)N(C(=O)c2ccccc2)C1=O` [Compound 10, 4-((3-benzoyl-5-((dimethylamino)methylene)-4-oxothiazolidin-2-ylidene)amino) benzoic acid], in assay [1] (setting [7]), the IC50 was found to be 17.4 µM. Also, in assay [2] (Homo sapiens), the IC50 was 67.4 µM. Moreover, in assay [5], the “Apoptosis Early” value turned out to be 6.41%, the “Apoptosis Late” value is 16.6% and the Necrosis stood at 3.14%. The “potency against colon cancer relative to the standard reference (5-fluorouracil)” value in assay [3] is listed as “higher potency against colon cancer relative to the standard reference”. The molecule also registered an IC50 in assay [3] (Homo sapiens, HCT-116) of 12.2 µM. The “Comment (cell cycle result)” value in assay [6] is listed as “cell cycle arrest at G1/S phase; also recorded: PreGlapoptosis&Cell”. Besides, in assay [6] (at IC50 concentration 12.17 μM), the “% G0-G1” value is given as 38.71%, the “% G2/M” value is on record as 28.85%, the “% Pre-G1” value stood at 26.15% and the “% S” value is on record as 32.44%.
Take “4-(5-(((1H-1,2,4-triazol-3-yl)amino) methylene)-3-benzoyl-4-oxothiazolidin-2-ylidene)amino)benzoic acid [Compound 11]”: the IC50 in assay [4] came to 0.0739 ± 0.0016 µM.
Consider `CN(C)c1ccc(/C=C2/S/C(=N\c3ccc(C(=O)O)cc3)N(C(=O)c3ccccc3)C2=O)cc1` [Compound 6i, 4-((3-benzoyl-5-(4-(dimethylamino)benzylidene)-4-oxothiazolidin-2-ylidene)amino) benzoic acid], for which the half-maximal inhibitory concentration (IC50) in assay [1] (setting [7]) is over 100 µM; in assay [2] (Homo sapiens) it was over 100 µM; in assay [3] (Homo sapiens, HCT-116), over 100 µM.
For “4-((3-benzoyl-5-(5-((4-chlorophenyl)diazenyl)-2-hydroxybenzylidene)-4-oxothiazolidin-2-ylidene)amino)benzoic acid [Compound 9c]”, the IC50 is 38 µM in assay [1] (MCF7 breast carcinoma cells), over 100 µM in assay [2], 19.6 µM in assay [3] and 0.168 ± 0.0036 µM in assay [4]. Further, the “potency against colon cancer relative to the standard reference (5-fluorouracil)” value in assay [3] is listed as “higher potency against colon cancer relative to the standard reference”.
“4-((3-benzoyl-5-((dimethylamino)methylene)-4-oxothiazolidin-2-ylidene)amino) benzoic acid [Compound 10]”: 0.0674 µM corresponded to half-maximal inhibition in assay [4] (IC50).
In the case of `O=C(O)c1ccc(/N=C2\S/C(=C/c3c[nH]c4ccccc34)C(=O)N2C(=O)c2ccccc2)cc1` [Compound 6h, 4-((5-((1H-indol-3-yl)methylene)-3-benzoyl-4-oxothiazolidin-2-ylidene)amino) benzoic acid], the half-maximal inhibitory concentration (IC50) in assay [1] (setting [7]) is over 100 µM; in assay [2] (Homo sapiens), over 100 µM; in assay [3] (Homo sapiens, HCT-116), over 100 µM.
Turning to `O=C(O)c1ccc(/N=C2\S/C(=C/Nc3nc[nH]n3)C(=O)N2C(=O)c2ccccc2)cc1` [Compound 11], the IC50 in assay [1] (setting [7]) turned out to be 11.7 µM. It took 98.5 µM to reach half-maximal inhibition in assay [2] (Homo sapiens) (IC50). In assay [5], the “Apoptosis Early” value is 6.41%, the “Apoptosis Late” value is 16.6%, the “Apoptosis Total” value stood at 26.15% and the Necrosis is on record as 3.14%. The “potency against colon cancer relative to the standard reference (5-fluorouracil)” value in assay [3] is recorded as “higher potency against colon cancer relative to the standard reference”. The molecule also yielded an IC50 in assay [3] (Homo sapiens, HCT-116) of 7.17 µM.
In the case of `COc1cc(/C=C2/S/C(=N\c3ccc(C(=O)O)cc3)N(C(=O)c3ccccc3)C2=O)cc(OC)c1` [Compound 6e, 4-((3-benzoyl-5-(3,5-dimethoxybenzylidene)-4-oxothiazolidin-2-ylidene)amino) benzoic acid], the concentration for half-maximal inhibition (IC50) in assay [1] (setting [7]) was over 100 µM; in assay [2] (Homo sapiens), over 100 µM; in assay [3] (Homo sapiens, HCT-116), over 100 µM.
